Columns and labels:
ErbB2 (D769H) = target: T1, ErbB2 (D769H) (Homo sapiens, UniProt P04626, D769H); assay: ErbB2 mutant inhibition assay (33P-ATP radiometric kinase assay, Reaction Biology); format: biochemical; details: ATP 10 μM, 20 min preincubation, 2 h reaction; read-out: Compound IC50 ErbB2 (D769H)
T1 construct: purchased Reaction Biology Corporation
Description: (§1) The reagents and materials used in the assay, as well as the testing procedure, were provided and carried out by Reaction Biology Corporation. The specific steps were as follows: • 1. […] Conditions for the enzyme reaction assay: The test compounds were incubated for 20 minutes, ATP concentration was set at 10 μM, and the total duration of the enzyme reaction was 2 hours. • 3. Experimental steps for the enzyme reaction
(§2) The enzyme reaction buffer was 20 mM HEPES at a pH of 7.5, 10 mM MgCl2, 2 mM MnCl2, 1 mM EGTA, 0.01% Brij35, 0.02 mg/mL BSA, 0.1 mM Na3VO4, 2 mM DTT, and 1% DMSO.
(§3) Kinase activity %=(Remaining kinase activity of test compound samples/Kinase activity of solvent control samples (DMSO))*100%
(§4) The IC50 of the compound was calculated by fitting the kinase activity % at different compound concentrations.

ErbB2 (D769Y) = target: T2, ErbB2 (D769Y) (Homo sapiens, UniProt P04626, D769Y); assay: as above; format: biochemical; details: ATP 10 μM, 20 min preincubation, 2 h reaction; read-out: Compound IC50 ErbB2 (D769Y)
T2 construct: purchased Reaction Biology Corporation
Description: as §1, §2, §3, §4

ErbB2 (V777L) = target: T3, ErbB2 (V777L) (Homo sapiens, UniProt P04626, V777L); assay: as above; format: biochemical; details: ATP 10 μM, 20 min preincubation, 2 h reaction; read-out: Compound IC50 ErbB2 (V777L)
T3 construct: purchased Reaction Biology Corporation
Description: as §1, §2, §3, §4

ErbB2 (R896C) = target: T4, ErbB2 (R896C) (Homo sapiens, UniProt P04626, R896C); assay: as above; format: biochemical; details: ATP 10 μM, 20 min preincubation, 2 h reaction; read-out: Compound IC50 ErbB2 (R896C)
T4 construct: purchased Reaction Biology Corporation
Description: as §1, §2, §3, §4

[1] = tested on: Ba/F3 ErbB2 A775_G776insYVMA mouse xenograft; assay: Efficacy testing in NPSG mouse xenograft model; format: in vivo; details: 20 mg/kg; for TGI (%): administration for 13 days; for Efficacy (in words): continuous administration for 13 days
From the text: NPSG male mice (Shanghai Jihui Laboratory Animal Care Co., Ltd., Certificate: No. 20170012006783) were subcutaneously inoculated on the right shoulder with Ba/F3 ErbB2 A775_G776insYVMA cells (cultured in vitro, 9×10^7 cells obtained). When the average tumor volume reached 130 mm^3, the mice were randomly divided into six groups based on tumor volume and body weight, with 10 mice in each group, and administration was started immediately. After the initiation of administration, the mice's body weight and tumor volume were measured twice a week, with the administration continued until Day 13 of the experiment. On Day 14 of the experiment, post-administration sample collection was conducted for each group.
Note: Data are presented as mean±standard error; control group is the group without any compound administered.

[2] = tested on: Ba/F3 ErbB2 A775_G776insYVMA; assay: ErbB2 mutant cell inhibition test (CTG, 72 hours); format: cell-based; details: Mus musculus, BaF3; Ba/F3 ErbB2 A775_G776insYVMA, 72 hours, CTG
Description: Cells were cultured, harvested during their logarithmic growth phase, and counted using a platelet counter. Cell viability was verified to be above 90% by trypan blue exclusion assay. After in vitro culture, 2×10^6 cells were obtained. […] A 10× drug solution was prepared, with a maximum concentration of 10 μM for the assay, and serially diluted 3-fold to nine concentrations. 10 μL of the drug solution was added to each well of the 96-well plate inoculated with the cells, and three duplicate wells were set for each drug concentration.

[3] = tested on: NCI-H1781 ErbB2 exon20ins (G766 > VC); assay: ErbB2 mutant cell inhibition test (CTG, 72 hours); format: cell-based, Human; details: Homo sapiens; NCI-H1781 ErbB2 exon20ins (G766 > VC), 72 hours, CTG
Description: Cells were cultured, harvested during their logarithmic growth phase, and counted using a platelet counter. Cell viability was verified to be above 90% by trypan blue exclusion assay. After in vitro culture, 2×10^6 cells were obtained. The cell suspension was aliquoted into a 96-well plate at 1×10^3 cells per well (90 μL/well), and incubated overnight under conditions of 37° C., 5% CO2, and 95% humidity. A 10× drug solution was prepared, with a maximum concentration of 10 μM for the assay, and serially diluted 3-fold to nine concentrations. 10 μL of the drug solution was added to each well of the 96-well plate inoculated with the cells, and three duplicate wells were set for each drug concentration. The 96-well plate, now containing the drug-treated cells, was cultured under conditions of 37° C., 5% CO2, and 95% humidity for an additional 72 hours before CTG analysis was performed.

T1 sequence (P04626 23-1255 D769H): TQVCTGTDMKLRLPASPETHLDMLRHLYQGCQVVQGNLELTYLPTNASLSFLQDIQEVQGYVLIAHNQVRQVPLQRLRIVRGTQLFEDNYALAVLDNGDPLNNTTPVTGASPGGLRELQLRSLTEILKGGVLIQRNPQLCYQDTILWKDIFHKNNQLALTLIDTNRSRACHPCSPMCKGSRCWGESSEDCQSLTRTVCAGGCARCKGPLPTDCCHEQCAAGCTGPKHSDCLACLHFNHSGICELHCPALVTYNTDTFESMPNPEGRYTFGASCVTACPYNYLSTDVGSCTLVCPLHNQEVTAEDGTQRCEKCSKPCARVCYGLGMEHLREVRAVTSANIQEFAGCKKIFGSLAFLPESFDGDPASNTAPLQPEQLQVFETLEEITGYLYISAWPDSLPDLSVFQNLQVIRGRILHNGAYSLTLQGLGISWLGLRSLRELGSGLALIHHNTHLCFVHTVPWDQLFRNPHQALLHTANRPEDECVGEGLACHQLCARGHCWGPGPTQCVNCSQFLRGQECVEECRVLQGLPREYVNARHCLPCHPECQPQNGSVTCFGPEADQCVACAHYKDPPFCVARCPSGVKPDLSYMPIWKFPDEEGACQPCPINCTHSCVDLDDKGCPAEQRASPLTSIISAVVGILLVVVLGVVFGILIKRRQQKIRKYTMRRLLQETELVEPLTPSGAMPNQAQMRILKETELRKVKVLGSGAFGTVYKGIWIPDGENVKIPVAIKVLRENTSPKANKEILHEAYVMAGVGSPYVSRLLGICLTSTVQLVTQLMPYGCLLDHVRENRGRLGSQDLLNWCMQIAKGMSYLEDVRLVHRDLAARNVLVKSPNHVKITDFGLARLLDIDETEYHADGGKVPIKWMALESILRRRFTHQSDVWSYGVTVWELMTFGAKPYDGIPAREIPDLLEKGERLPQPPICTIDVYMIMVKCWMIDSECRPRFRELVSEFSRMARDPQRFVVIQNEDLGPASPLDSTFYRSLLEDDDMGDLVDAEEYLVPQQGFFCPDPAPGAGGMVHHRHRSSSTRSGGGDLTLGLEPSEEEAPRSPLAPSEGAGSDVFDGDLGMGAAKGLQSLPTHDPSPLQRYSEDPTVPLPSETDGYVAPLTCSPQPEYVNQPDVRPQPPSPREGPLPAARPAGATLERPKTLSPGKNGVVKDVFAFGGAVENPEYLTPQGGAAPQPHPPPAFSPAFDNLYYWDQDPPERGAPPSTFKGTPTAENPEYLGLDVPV
T2 sequence (P04626 23-1255 D769Y): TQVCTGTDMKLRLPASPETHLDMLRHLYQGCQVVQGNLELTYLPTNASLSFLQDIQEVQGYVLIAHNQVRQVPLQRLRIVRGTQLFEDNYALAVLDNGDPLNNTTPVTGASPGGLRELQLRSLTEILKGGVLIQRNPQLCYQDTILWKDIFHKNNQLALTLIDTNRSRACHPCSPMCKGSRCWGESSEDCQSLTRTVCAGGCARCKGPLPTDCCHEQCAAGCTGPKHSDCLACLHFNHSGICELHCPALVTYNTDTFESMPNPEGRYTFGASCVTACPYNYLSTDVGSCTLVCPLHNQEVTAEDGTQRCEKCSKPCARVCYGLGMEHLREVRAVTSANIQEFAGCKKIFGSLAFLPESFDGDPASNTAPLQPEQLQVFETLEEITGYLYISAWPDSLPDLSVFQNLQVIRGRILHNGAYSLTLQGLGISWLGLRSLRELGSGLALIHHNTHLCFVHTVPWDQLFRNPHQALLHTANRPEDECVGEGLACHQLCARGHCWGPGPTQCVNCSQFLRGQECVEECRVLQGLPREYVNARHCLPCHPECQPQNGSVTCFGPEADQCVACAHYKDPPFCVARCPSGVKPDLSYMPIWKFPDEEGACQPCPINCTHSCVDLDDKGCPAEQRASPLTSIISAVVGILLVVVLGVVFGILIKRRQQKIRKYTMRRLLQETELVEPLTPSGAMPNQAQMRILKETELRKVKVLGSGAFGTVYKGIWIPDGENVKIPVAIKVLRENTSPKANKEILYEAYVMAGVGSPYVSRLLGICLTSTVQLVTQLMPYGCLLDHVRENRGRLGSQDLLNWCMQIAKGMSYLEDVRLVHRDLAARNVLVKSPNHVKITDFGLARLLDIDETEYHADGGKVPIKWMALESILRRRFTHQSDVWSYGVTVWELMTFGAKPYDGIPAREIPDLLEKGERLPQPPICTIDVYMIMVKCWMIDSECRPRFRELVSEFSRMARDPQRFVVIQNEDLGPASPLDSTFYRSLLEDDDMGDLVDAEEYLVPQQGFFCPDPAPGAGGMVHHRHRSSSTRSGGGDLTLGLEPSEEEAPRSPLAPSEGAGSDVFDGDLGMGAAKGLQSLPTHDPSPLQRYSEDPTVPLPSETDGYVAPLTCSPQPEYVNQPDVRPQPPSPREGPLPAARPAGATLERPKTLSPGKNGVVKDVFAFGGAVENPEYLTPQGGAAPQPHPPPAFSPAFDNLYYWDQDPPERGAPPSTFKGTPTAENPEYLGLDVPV
T3 sequence (P04626 23-1255 V777L): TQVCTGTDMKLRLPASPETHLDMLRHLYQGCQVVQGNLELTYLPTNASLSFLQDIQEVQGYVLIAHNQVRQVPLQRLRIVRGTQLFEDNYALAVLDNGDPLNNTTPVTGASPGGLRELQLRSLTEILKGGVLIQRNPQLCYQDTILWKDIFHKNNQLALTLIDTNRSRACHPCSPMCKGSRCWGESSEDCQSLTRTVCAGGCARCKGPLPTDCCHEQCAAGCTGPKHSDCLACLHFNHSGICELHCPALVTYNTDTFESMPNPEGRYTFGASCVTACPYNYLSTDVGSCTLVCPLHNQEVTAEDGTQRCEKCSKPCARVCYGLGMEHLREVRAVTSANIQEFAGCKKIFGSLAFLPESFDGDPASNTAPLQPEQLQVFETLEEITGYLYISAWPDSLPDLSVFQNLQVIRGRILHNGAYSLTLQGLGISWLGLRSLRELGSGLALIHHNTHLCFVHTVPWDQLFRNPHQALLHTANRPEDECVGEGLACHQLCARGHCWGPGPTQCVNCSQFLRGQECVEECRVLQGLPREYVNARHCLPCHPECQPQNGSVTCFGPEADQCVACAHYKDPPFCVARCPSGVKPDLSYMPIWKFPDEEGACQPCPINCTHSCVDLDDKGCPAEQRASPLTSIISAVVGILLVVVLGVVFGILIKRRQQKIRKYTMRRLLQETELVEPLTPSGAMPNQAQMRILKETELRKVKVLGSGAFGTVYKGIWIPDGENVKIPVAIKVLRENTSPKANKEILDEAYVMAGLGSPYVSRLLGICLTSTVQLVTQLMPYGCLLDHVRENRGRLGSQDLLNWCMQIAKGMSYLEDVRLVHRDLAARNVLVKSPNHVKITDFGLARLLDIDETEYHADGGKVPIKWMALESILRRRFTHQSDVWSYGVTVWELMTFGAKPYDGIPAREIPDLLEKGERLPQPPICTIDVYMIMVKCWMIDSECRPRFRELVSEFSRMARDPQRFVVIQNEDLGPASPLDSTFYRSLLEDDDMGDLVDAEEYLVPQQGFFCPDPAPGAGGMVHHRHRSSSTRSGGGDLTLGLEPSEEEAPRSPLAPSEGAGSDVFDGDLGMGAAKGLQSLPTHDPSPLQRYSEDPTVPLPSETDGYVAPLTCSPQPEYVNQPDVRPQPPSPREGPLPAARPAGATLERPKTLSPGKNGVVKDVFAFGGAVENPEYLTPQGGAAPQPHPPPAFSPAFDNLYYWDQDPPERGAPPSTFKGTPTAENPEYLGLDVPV
T4 sequence (P04626 23-1255 R896C): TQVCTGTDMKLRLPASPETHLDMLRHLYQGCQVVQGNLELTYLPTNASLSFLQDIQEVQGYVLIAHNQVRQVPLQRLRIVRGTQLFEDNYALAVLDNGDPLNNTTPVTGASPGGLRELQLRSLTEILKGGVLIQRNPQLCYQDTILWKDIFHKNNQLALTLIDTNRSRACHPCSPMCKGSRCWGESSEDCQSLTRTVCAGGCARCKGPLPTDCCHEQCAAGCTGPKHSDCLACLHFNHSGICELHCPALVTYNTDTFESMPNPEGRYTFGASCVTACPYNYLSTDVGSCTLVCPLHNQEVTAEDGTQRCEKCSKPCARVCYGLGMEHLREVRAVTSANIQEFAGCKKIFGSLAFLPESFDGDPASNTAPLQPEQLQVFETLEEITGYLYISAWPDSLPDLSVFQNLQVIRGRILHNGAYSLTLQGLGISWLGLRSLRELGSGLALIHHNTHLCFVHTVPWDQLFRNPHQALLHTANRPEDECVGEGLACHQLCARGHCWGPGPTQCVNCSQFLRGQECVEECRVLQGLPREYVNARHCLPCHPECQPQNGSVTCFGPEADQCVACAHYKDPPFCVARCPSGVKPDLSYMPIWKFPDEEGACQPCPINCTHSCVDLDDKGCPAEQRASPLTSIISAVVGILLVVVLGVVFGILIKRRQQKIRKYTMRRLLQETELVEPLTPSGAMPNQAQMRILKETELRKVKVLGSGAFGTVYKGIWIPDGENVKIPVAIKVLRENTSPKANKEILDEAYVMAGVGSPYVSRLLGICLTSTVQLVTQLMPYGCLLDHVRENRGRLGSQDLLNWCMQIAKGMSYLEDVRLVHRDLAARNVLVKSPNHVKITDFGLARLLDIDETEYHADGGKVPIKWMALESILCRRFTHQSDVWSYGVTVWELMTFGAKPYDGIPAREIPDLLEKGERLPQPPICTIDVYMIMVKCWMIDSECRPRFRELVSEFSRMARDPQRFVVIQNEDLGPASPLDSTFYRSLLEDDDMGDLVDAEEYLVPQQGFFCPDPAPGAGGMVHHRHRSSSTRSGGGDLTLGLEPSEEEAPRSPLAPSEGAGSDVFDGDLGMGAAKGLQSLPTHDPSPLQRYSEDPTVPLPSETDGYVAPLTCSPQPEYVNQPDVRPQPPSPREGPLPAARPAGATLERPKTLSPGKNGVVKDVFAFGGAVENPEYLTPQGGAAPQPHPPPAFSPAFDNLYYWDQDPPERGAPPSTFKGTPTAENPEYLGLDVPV

Row | SMILES | IC50 (ErbB2 (D769H)) | IC50 (ErbB2 (D769Y)) | IC50 (ErbB2 (V777L)) | IC50 (ErbB2 (R896C)) | IC50 [2] | IC50 [3] | Tumor volume ([1]; Day 0, mean ± standard error) | Tumor volume ([1]; Day 4, mean ± standard error) | Tumor volume ([1]; Day 7, mean ± standard error) | Tumor volume ([1]; Day 11, mean ± standard error) | Tumor volume ([1]; Day 13, mean ± standard error) | TGI (%) [1] | Efficacy (in words) [1]
1 | CCOc1cc2ncnc(Nc3ccc(Oc4ccn5ncnc5c4)c(C)c3)c2cc1NC(=O)/C(F)=C/[C@@H]1CCCN1C | 0.998 nM | 2.44 nM | 0.235 nM | 0.978 nM |  |  |  |  |  |  |  |  | 
2 | CCOc1cc2ncc(C#N)c(Nc3ccc(OCc4ccccn4)c(Cl)c3)c2cc1NC(=O)/C=C/CN(C)C [Neratinib, reference compound] |  |  |  |  |  |  | 130.9 ± 4.75 mm^3 | 115.3 ± 9.81 mm^3 | 182 ± 10.87 mm^3 | 325.6 ± 9.86 mm^3 | 532.8 ± 15.26 mm^3 | 56% | 
3 | CS(=O)(=O)CCNCc1ccc(-c2ccc3ncnc(Nc4ccc(OCc5cccc(F)c5)c(Cl)c4)c3c2)o1 [Lapatinib, reference compound] |  |  |  |  | 106 nM |  |  |  |  |  |  |  | moderate efficacy
4 | CCOc1cc2ncc(C#N)c(Nc3ccc(OCc4ccccn4)c(Cl)c3)c2cc1NC(=O)/C=C/[C@H]1CCCN1C [Pyrotinib, reference compound] | 15.6 nM | 91.7 nM | 10.5 nM | 5.24 nM |  | 73.2 nM | 130.4 ± 5.4 mm^3 | 154.6 ± 4.87 mm^3 | 328.2 ± 13.39 mm^3 | 405.4 ± 19.38 mm^3 | 534.8 ± 38.29 mm^3 | 55% | moderate efficacy

Second part, led by results:

Row | IC50 (ErbB2 (D769H)) | IC50 (ErbB2 (D769Y)) | IC50 (ErbB2 (V777L)) | IC50 (ErbB2 (R896C)) | IC50 [2] | IC50 [3] | SMILES | Tumor volume ([1]; Day 0, mean ± standard error) | Tumor volume ([1]; Day 4, mean ± standard error) | Tumor volume ([1]; Day 7, mean ± standard error) | Tumor volume ([1]; Day 11, mean ± standard error) | Tumor volume ([1]; Day 13, mean ± standard error) | TGI (%) [1] | Efficacy (in words) [1]
5 | 0.241 nM | < 0.152 nM | < 0.152 nM | 0.599 nM |  |  | COCCOc1cc2ncnc(Nc3ccc(Oc4cc5nncn5cn4)c(C)c3)c2cc1NC(=O)/C=C/[C@H]1CCCN1C |  |  |  |  |  |  | 
6 | < 0.152 nM | 0.6 nM | 0.279 nM | 0.336 nM |  |  | Cc1cc(Nc2ncnc3ccc(NC(=O)/C=C/[C@H]4CCCN4C)cc23)ccc1Oc1cnc2ccnn2c1 |  |  |  |  |  |  | 
7 | 0.72 nM | 0.892 nM | 0.438 nM | 0.973 nM |  |  | Cc1cc(Nc2ncnc3ccc(NC(=O)/C=C/C4COCCN4)cc23)ccc1Oc1cc2nncn2cn1 (stereo not drawn) |  |  |  |  |  |  | 
8 | 0.549 nM | 1.45 nM | 0.163 nM | 0.788 nM |  |  | Cc1cc(Nc2ncnc3ccc(NC(=O)/C=C/[C@@H]4CCCN4C)cc23)ccc1Oc1cc2nncn2cn1 |  |  |  |  |  |  | 
9 | 0.253 nM | 1.98 nM | 0.625 nM | 0.191 nM |  |  | Cc1cc(Nc2ncnc3ccc(NC(=O)/C=C/[C@H]4CCCN4C)cc23)ccc1Oc1ccn2cnnc2c1 |  |  |  |  |  |  | 
10 | 0.325 nM | 0.246 nM | 0.186 nM | 0.997 nM |  |  | Cc1cc(Nc2ncnc3ccc(NC(=O)/C=C/[C@H]4CCCN4)cc23)ccc1Oc1ccn2ncnc2c1 |  |  |  |  |  |  | 
